Measurements from patent US6642003B2, “Human glucose-dependent insulin-secreting cell line” (Cedars-Sinai Medical Center, priority 2001, dated 2003).

Columns and labels:
PANC-1 cells [1] = experiment: Immunofluorescence for IDX-1, parental PANC-1 cells; type: cell-based, human; details: vehicle alone or GLP-1
Experimental: (§1) Cells were cultured on monocoated chamber slides (Nalge Nunc International; Naperville, Ill.) in the presence of GLP-1 (10 nM), or vehicle, for 72 h.
For the detection of IDX-1, slightly different conditions were used. Briefly: the concentration of paraformaldehyde was decreased to 2%, and the concentration of Triton to permeabilize the cells was raised to 0.2% Triton-X-100. Cells were then washed with 0.01 M PBS three times for 3-5 min, and non-specific binding was inhibited by using 5% chick serum in 0.01 M PBS, at room temperature for 60 min in a humid chamber. A rabbit IDX-1 antibody directed against the N-terminus of the frog homologue of the IDX-1 gene was used as the primary antibody (1:500 diluted with 0.1% Triton-X 100, 1% BSA in 0.01 M PBS), and slides were incubated at 4° C. overnight in a humid chamber. After washing, cells were incubated with a fluorescein-conjugated goat anti-rabbit IgG antibody (Molecular Probes, Inc. Eugene, Oreg.) and incubated at room temperature for 1 hour in a humid chamber. Nuclei of cells stained with anti-IDX-1 antibody were visualized with Hoechst […] dye (Sigma, St. Louis, Mo.). The percentage of IDX-1 containing cells was evaluated by counting the number of IDX-1 “positive” cells divided by the total number of cells identified by nuclear staining.

PANC-1/IDX-1 cells [2] = experiment: Flow cytometric (FACS) analysis for insulin, PANC-1/IDX-1 cells; type: cell-based, human; details: GLP-1 10 nM, 72 h
Experimental: (§2) PANC-1 cells were transfected with a pcDNA3 construct (Invitrogen; Carlsbad, Calif.) harboring the wild-type full-length IDX-1 cDNA using LipoTAXI (Catalog N. 204110; Mammalian Transfection Kit, Stratagene; La Jolla, Calif.). Control cells were transfected with the vector alone. The selection of positive (i.e. transfected) cells was carried out by culturing the cells in the presence of 400 μg/ml of G418 sulfate (GN-04, Omega; Tarzana, Calif.).
For fluorescence-activated cells sorting (FACS) analysis, cells were cultured in the presence of GLP-1 (10 nM), or vehicle, for 72 h, then washed with cold PBS (pH 7.4; three times) and incubated overnight, on ice, in PBS with 2% paraformaldehyde. After centrifugation, the cell pellet was resuspended in 400 μl of cold 0.1% Triton diluted in FACS buffer (PBS with 2% FCS). After several centrifugation and washes, the cells were resuspended in the assay buffer with of 10 μl of fluorescent-conjugated insulin antibody (Cat N. FM205, FITC: Chromaprobe, Inc; Mountain View, Calif.), in the presence of 10 μl of blocking antibody (anti-mouse IgG; Organon Teknika-Cappel, West Chester, Pa.). […] Flow cytometric analysis was performed with a FACScan[R] cytometer, using the LYSYS II program, and by fluorescence microscopy, as is well known in the art. […]

ARIP cells = experiment: Morphological changes (hematoxylin and eosin), ARIP cells; type: cell-based, rat; details: GLP-1 10 nM for 72 h
Source text: Hematoxylin and eosin staining was employed, in some experiments, to show the morphological changes observed under the experimental conditions described below.

PANC-1 cells [3] = experiment: Flow cytometric (FACS) analysis for insulin, parental PANC-1 cells; type: cell-based, human; details: presence or absence of GLP-1; equivalent to assay background
Experimental: For fluorescence-activated cells sorting (FACS) analysis, cells were cultured in the presence of GLP-1 (10 nM), or vehicle, for 72 h, then washed with cold PBS (pH 7.4; three times) and incubated overnight, on ice, in PBS with 2% paraformaldehyde. After centrifugation, the cell pellet was resuspended in 400 μl of cold 0.1% Triton diluted in FACS buffer (PBS with 2% FCS). After several centrifugation and washes, the cells were resuspended in the assay buffer with of 10 μl of fluorescent-conjugated insulin antibody (Cat N. FM205, FITC: Chromaprobe, Inc; Mountain View, Calif.), in the presence of 10 μl of blocking antibody (anti-mouse IgG; Organon Teknika-Cappel, West Chester, Pa.). Control samples were treated with PBS, without the primary antibody, and then incubated with an […] FITC-conjugated control antibody (murine IgG; Chromaprobe Inc., Mountain View, Calif.). Flow cytometric analysis was performed with a FACScan[R] cytometer, using the LYSYS II program, and by fluorescence microscopy, as is well known in the art. See, e.g., E. Elstner, M. Linker-Israeli, J. Le, T. Umiel, P. Michl, J. W. Said, L. Binderup, J. C. […]

ARIP and PANC-1 cells = experiment: GLP-1 receptor (GLP-R) mRNA by cycle-titration RT-PCR; type: cell-based; details: GLP-1 10 nM for 72 h, transfected and non-transfected cells
Experimental: FIGS. 9A-C show GLP-1 receptor expression in ARIP and PANC-1 cells. ARIP and PANC-1 cells (transfected with human IDX-1, or solely with the neomycin resistant gene) were cultured in serum-free medium and treated with GLP-1 (10 nM), or vehicle alone, for 72 h. RT-PCR for GLP-R and β-actin was performed with a cycle-titration PCR (15, 20, 25, 30 PCR cycles) to assess the relative abundance of GLP-R transcript. Primers for both transcripts were added together in a single PCR-reaction for each individual sample. […] Each experiment was repeated four times, using RNA samples from independent cultures. The blots on the left represent one individual experiment, while the graphs on the right are the average of four independent experiments. The numeric values in the graphs represent the ratio of GLP-R mRNA to actin mRNA.
Treatment with GLP-1 induces the differentiation of ductal epithelial cells into insulin-producing cells. FIG. 2 illustrates a series of cell cultures grown with or without GLP-1 (10 nM) for 72 h. […] Preabsorption of the antibody with an excess of human recombinant insulin prevented the staining of insulin-positive GLP-1 treated cells (data not shown). While treatment with GLP-1 turned the majority of ARIP cells into glucokinase mRNAs, the same PCR conditions as described above were used in the presence of gene-specific primers. […]

PANC-1 cells [4] = experiment: Immunocytochemistry for insulin, parental PANC-1 cells; type: cell-based, human; details: presence or absence of GLP-1
Experimental: as §1
(§3) For the detection of insulin, cells were washed and fixed with 3% paraformaldehyde for 4 h, at room temperature in PBS, solubilized with 0.1% (vol/vol) Triton X-100 in PBS for 5 min. Cells were then incubated sequentially with an anti-insulin antibody and a secondary antibody, as described by the manufacturer (Biomeda Corp.; Foster City, Calif.). The cells were examined using a Ziess Axiophoto microscope (New York, N.Y.).

PANC-1/IDX-1 cells [5] = experiment: Immunocytochemistry and immunofluorescence for insulin, PANC-1/IDX-1 cells; type: cell-based, human; details: GLP-1 10 nM, 72 h
Experimental: as §2, §1, §3
Insulin immunofluoresce, for co-immunostaining with IDX-1, was carried on using the […], while the secondary antibody was a goat anti-guinea pig IgG (Molecular Probes, Inc.). The cells were examined using a using a fluorescent microscope (E-800; Nikon, Tokyo).

## glucagon-like peptide-1 [GLP-1]
PANC-1 cells [1]
  IDX-1 staining: No positive IDX-1 staining
PANC-1/IDX-1 cells [2]
  cultured cells converted from insulin negative to insulin positive: 61.7%
ARIP cells
  morphological change: promoted the aggregation of cells in small clusters
PANC-1 cells [3]
  cells containing insulin in the cytoplasm: 1.4%
ARIP and PANC-1 cells
  effect on GLP-R mRNA levels: further modest increase (no-statistically significant)
PANC-1 cells [4]
  insulin immunostaining: No positive insulin immunostaining
PANC-1/IDX-1 cells [5]
  insulin immunostaining: capable of synthesizing insulin
PANC-1/IDX-1 cells [5]; double immunofluorescence
  IDX-1 containing cells also positive for intracellular insulin: Approximately 85%
  weakly IDX-1 positive cells not stained by anti-insulin antibody: ~20%
